According to the supplement of paper PMC10307832:

What was measured:
Experiment in all cases: relative viability (nuclei count vs DMSO), 5 days (fraction); higher = more cells survive
Axitinib + OSI-027 = compound: CNC(=O)c1ccccc1Sc1ccc2c(/C=C/c3ccccn3)n[nH]c2c1 [Axitinib] + COc1cccc2cc(-c3nc([C@H]4CC[C@H](C(=O)O)CC4)n4ncnc(N)c34)[nH]c12 [OSI-027] (partner 0.5 µM)
Method in brief: (§1)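 Five library-drug doses in √10 steps were combined with a fixed anchor-drug dose, or a single drug was given alone, by pin tool to lung cancer cell lines in 1536-well plates the day after seeding. Nuclei were stained and counted after 5 days. Relative viability is the nuclei count in treated wells over that in vehicle wells, taken as the median of duplicate plates.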

Bemcentinib + Vorinostat = compound: Nc1nc(Nc2ccc3c(c2)CC[C@@H](N2CCCC2)CC3)nn1-c1cc2c(nn1)-c1ccccc1CCC2 [Bemcentinib] + O=C(CCCCCCC(=O)Nc1ccccc1)NO [Vorinostat] (partner 1 µM)
Method in brief: as §1

[1] = compound: CC1=CC=C(C=C1)C(=O)CN2C3=C(CCCC3)SC2=N [Pifithrin_alpha] + Cc1nc(Nc2ncc(C(=O)Nc3c(C)cccc3Cl)s2)cc(N2CCN(CCO)CC2)n1 [Dasatinib] (partner 0.075 µM)
Method in brief: as §1

[2] = compound: CC1=CC=C(C=C1)C(=O)CN2C3=C(CCCC3)SC2=N [Pifithrin_alpha] + CCNC(=O)c1noc(-c2cc(C(C)C)c(O)cc2O)c1-c1ccc(CN2CCOCC2)cc1 [Luminespib] (partner 0.01 µM)
Method in brief: as §1

| Cell Line | relative viability (Axitinib + OSI-027; first compound 0.005 µM) | relative viability (Axitinib + OSI-027; first compound 0.01581 µM) | relative viability (Axitinib + OSI-027; first compound 0.05 µM) | relative viability (Axitinib + OSI-027; first compound 0.1581 µM) | relative viability (Axitinib + OSI-027; first compound 0.5 µM) | relative viability (Bemcentinib + Vorinostat; first compound 0.04 µM) | relative viability (Bemcentinib + Vorinostat; first compound 0.1265 µM) | relative viability (Bemcentinib + Vorinostat; first compound 0.4 µM) | relative viability (Bemcentinib + Vorinostat; first compound 1.265 µM) | relative viability (Bemcentinib + Vorinostat; first compound 4 µM) | relative viability ([1]; first compound 1 µM) | relative viability ([1]; first compound 3.162 µM) | relative viability ([1]; first compound 10 µM) | relative viability ([1]; first compound 31.62 µM) | relative viability ([1]; first compound 100 µM) | relative viability ([2]; first compound 1 µM) | relative viability ([2]; first compound 3.162 µM) | relative viability ([2]; first compound 10 µM) | relative viability ([2]; first compound 31.62 µM) | relative viability ([2]; first compound 100 µM) |
| --- | --- | --- | --- | --- | --- | --- | --- | --- | --- | --- | --- | --- | --- | --- | --- | --- | --- | --- | --- | --- |
| HCC-827 | 0.822 | 0.745 | 0.826 | 0.759 | 0.933 | 0.79 | 0.858 | 0.783 | 0.361 | 0.789 | 0.336 | 0.333 | 0.351 | 0.429 | 0.363 | 0.747 | 0.741 | 0.803 | 0.439 | 0.863 |
| HOP-62 | 0.825 | 0.865 | 0.814 | 0.872 | 0.923 | 0.606 | 0.738 | 0.79 | 0.672 | 0.623 | 0.726 | 0.589 | 0.578 | 0.698 | 0.638 | 1.07 | 1.05 | 1.04 | 0.776 | 1.19 |
| IA-LM | – | – | – | – | – | 0.968 | 1.38 | 0.984 | 0.965 | 0.866 | – | – | – | – | – | – | – | – | – | – |
| LC-2-ad | 0.932 | 0.827 | 0.907 | 0.8 | 0.807 | 0.705 | 0.805 | 0.73 | 0.726 | 0.737 | – | 0.492 | 0.347 | – | 0.437 | – | 1.14 | 1.01 | – | 0.601 |
| LCLC-97TM1 | 0.589 | 0.51 | 0.427 | 0.48 | 0.475 | 0.727 | 0.703 | 0.702 | 0.633 | 0.829 | 1.08 | 0.846 | 0.984 | 0.428 | 0.954 | 0.742 | 0.783 | 0.774 | 0.423 | 0.808 |
| LCLC-103H | 0.461 | 0.487 | 0.472 | 0.432 | 0.535 | 0.774 | 0.826 | 0.8 | 0.783 | 0.883 | 0.518 | 0.474 | 0.498 | 0.43 | 0.425 | 0.947 | 0.994 | 0.894 | 0.789 | 0.996 |
| LK-2 | 0.202 | 0.168 | 0.193 | 0.191 | 0.186 | 0.497 | 0.253 | 0.171 | 0.281 | 0.365 | 0.249 | 0.246 | 0.28 | – | 0.307 | 0.219 | 0.179 | 0.171 | – | 0.229 |
| LOU-NH91 | 0.736 | 0.513 | 0.745 | 0.719 | 0.707 | 0.845 | 0.871 | 0.999 | 0.917 | 0.945 | 0.371 | 0.501 | 0.535 | 0.475 | 0.493 | 0.322 | 0.261 | 0.308 | 0.315 | 0.296 |
| LU99A | 0.314 | 0.317 | 0.342 | 0.289 | 0.304 | 0.472 | 0.482 | 0.468 | 0.477 | 0.436 | 0.385 | 0.651 | 0.609 | 0.369 | 0.583 | 0.304 | 0.302 | 0.244 | 0.206 | 0.281 |
| LXF-289 | 0.76 | 0.727 | 0.785 | 0.763 | 0.877 | 0.658 | 0.799 | 0.662 | 0.796 | 0.763 | 0.204 | 0.201 | 0.172 | 0.167 | 0.145 | 0.676 | 0.589 | 0.789 | 0.469 | 0.697 |
| NCI-H23 | 0.66 | 0.568 | 0.617 | 0.652 | 0.699 | 0.525 | 0.604 | 0.675 | 0.437 | 0.545 | 0.887 | 0.675 | 0.741 | – | 0.456 | 0.231 | 0.218 | 0.206 | 0.205 | 0.187 |
| NCI-H322M | 0.569 | 0.575 | 0.546 | 0.536 | 0.601 | 0.863 | 0.931 | 0.836 | 0.952 | 0.899 | 0.25 | 0.258 | 0.245 | 0.245 | 0.226 | 0.865 | 0.868 | 0.841 | 0.647 | 0.766 |
| NCI-H358 | 0.785 | 0.737 | 0.874 | 0.681 | 1.02 | 0.665 | 0.745 | 0.701 | 0.806 | 0.839 | 0.165 | 0.169 | 0.187 | 0.181 | 0.16 | 0.462 | 0.478 | 0.26 | 0.247 | 0.324 |
| NCI-H441 | 0.736 | 0.604 | 0.681 | 0.541 | 0.748 | 0.691 | 0.824 | 0.735 | 0.87 | 0.756 | 0.556 | 0.574 | 0.498 | – | 0.613 | 0.355 | 0.369 | 0.383 | – | 0.464 |
| NCI-H460 | 0.692 | 0.603 | 0.665 | 0.645 | 0.79 | 0.696 | 0.981 | 1.21 | 0.838 | 0.73 | 0.433 | 0.414 | 0.35 | 0.31 | 0.266 | 0.0365 | 0.032 | 0.0293 | 0.0251 | 0.0317 |
| NCI-H1563 | 0.708 | 0.705 | 0.742 | 0.705 | 0.704 | – | – | – | – | – | 0.406 | 0.478 | 0.369 | 0.442 | 0.44 | 0.489 | 0.549 | 0.47 | 0.467 | 0.539 |
| NCI-H1623 | 0.455 | 0.398 | 0.424 | 0.436 | 0.454 | – | – | – | – | – | 0.463 | 0.603 | 0.523 | 0.56 | 0.448 | 0.464 | 0.285 | 0.339 | 0.318 | 0.322 |
| NCI-H1648 | 0.258 | 0.238 | – | 0.245 | 0.249 | 0.598 | 0.362 | 0.385 | 0.386 | 0.457 | – | – | – | – | – | – | – | – | – | – |
| NCI-H1792 | 0.785 | 0.652 | 0.563 | 0.679 | 0.919 | – | – | – | – | – | – | 1.17 | 0.641 | 0.533 | 0.639 | 0.323 | 0.666 | 0.284 | 0.219 | 0.271 |
